{"source": "patent US20230119759A1", "about": "“PHARMACEUTICAL COMBINATION COMPRISING PYRIDINO[1,2-A]PYRIMIDINONE COMPOUND” (CHIA TAI TIANQING PHARMACEUTICAL GROUP CO., LTD., priority 2020, published 2023)", "tested_on": "BT-474 xenograft tumor", "experiment": "Human breast cancer (BT-474) xenograft tumor model in nude mice", "type": "in vivo, BALB/c female nude mice", "settings": "for Mean tumor volume (day 28) / T/C / TGI: day 28; for Mean tumor volume (day 0): day 0 (start of treatment, baseline)", "method": "BALB/c female nude mice (provided by Shanghai Sippr-BK Lab. Animal Co., Ltd.), SPF-grade, weight 18-25 g, aged about 8 weeks (tumor-bearing). Human breast cancer BT-474 cells (ATCC) were cultured in Hybri-Care medium containing 10% fetal bovine serum, 100 U/mL penicillin and […] in vitro monolayer culture at 37° C./5% CO2. The cells were digested with trypsin-EDTA twice a week for passaging as per conventional practice. When cell confluence was 80%-90%, the cells were collected, counted, and inoculated. Estrogen tablets were implanted 3 days before cell inoculation, 0.2 mL of BT-474 cells (1×10^7) were subcutaneously inoculated on the right back of each mouse, and grouping and administration was initiated when the mean tumor volume reached 127.19 mm^3. The compound of formula I was dissolved in a vehicle: 0.01 mol/L HCl solution, 0.5% methylcellulose and deionized water were mixed well in a volume ratio of 20:30:100.\nThe tumor volume was calculated using the following formula: V=0.5a×b^2, where a and b represent the long diameter and short diameter of the tumor, respectively. The percentage value of TIC (%) reflects the tumor growth inhibition rate, and where T and C represent the tumor weight (tumor volume) of the treatment groups and the control group, respectively, on a certain day.\nThe tumor growth inhibition rate was calculated using the following formula: TGI (%)=[1−(Ti−T0)/(Vi−V0)]×100, where Ti is the mean tumor volume of a certain treatment group on a certain day, T0 is the mean tumor volume of the treatment group at the start of treatment, Vi is the mean tumor volume of the vehicle control group on a certain day (same day as Ti) and V0 is the mean tumor volume of the vehicle control group at the start of treatment. Tumor weights were measured at the end of treatment and percentage Tweight/Cweight was calculated, where Tweight and Cweight represent the tumor weights of the treatment and vehicle control groups, respectively.", "key": {"[1]": {"settings": "1 mg/kg orally once daily for 28 days"}, "[2]": {"settings": "2 mg/kg orally once daily for 28 days"}, "[3]": {"settings": "4 mg/kg orally once daily for 28 days"}}}
{"compound": "COc1ncc(-c2ccc3ncc(OCCN(C)C)c(=O)n3c2)cc1NS(=O)(=O)c1ccc(F)cc1Cl", "note": "[Compound of formula I]", "values": [{"measurement": "Mean tumor volume (day 28)", "setting": "[1]", "value": "223 ± 50", "unit": "mm^3"}, {"measurement": "T/C", "setting": "[1]", "value": 56.09, "unit": "%"}, {"measurement": "TGI", "setting": "[1]", "value": 64.56, "unit": "%"}, {"measurement": "Mean tumor volume (day 0)", "setting": "1 mg/kg orally once daily", "value": "127 ± 11", "unit": "mm^3"}, {"measurement": "Mean tumor volume (day 28)", "setting": "[2]", "value": "159 ± 36", "unit": "mm^3"}, {"measurement": "T/C", "setting": "[2]", "value": 40.11, "unit": "%"}, {"measurement": "TGI", "setting": "[2]", "value": 88.10, "unit": "%"}, {"measurement": "Mean tumor volume (day 0)", "setting": "2 mg/kg orally once daily", "value": "127 ± 11", "unit": "mm^3"}, {"measurement": "Mean tumor volume (day 28)", "setting": "[3]", "value": "145 ± 40", "unit": "mm^3"}, {"measurement": "T/C", "setting": "[3]", "value": 36.52, "unit": "%"}, {"measurement": "TGI", "setting": "[3]", "value": 93.35, "unit": "%"}, {"measurement": "Mean tumor volume (day 0)", "setting": "4 mg/kg orally once daily", "value": "127 ± 11", "unit": "mm^3"}, {"measurement": "anti-tumor efficacy (in words)", "setting": "BT-474 xenograft tumor model, 1-4 mg/kg orally", "value": "significant anti-tumor efficacy"}]}
